Results as given in BigSolDB 2.1.

CC(=O)Oc1cc(C)c(OC(C)=O)c2ccccc12
solubility (mole fraction)
Conditions | 283.1 K | 288.1 K | 293.1 K | 298.1 K | 303.1 K | 308.1 K | 313.1 K | 318.1 K | 323.1 K
in cyclohexanol | 0.00261 | 0.00403 | 0.00595 | 0.0082 | 0.0105 | 0.0138 | 0.0182 | 0.0245 | 0.033
in ethanol | 0.00323 | 0.00417 | 0.00532 | 0.00656 | 0.00839 | 0.0108 | 0.014 | 0.0184 | 0.0242
in ethyl acetate | 0.0691 | 0.0795 | 0.0907 | 0.103 | 0.118 | 0.135 | 0.156 | 0.179 | 0.204
in isobutanol | 0.00212 | 0.0029 | 0.00384 | 0.00526 | 0.00708 | 0.00958 | 0.0131 | 0.018 | 0.0249
in isopentanol | 0.00241 | 0.00329 | 0.00422 | 0.0056 | 0.00766 | 0.0102 | 0.0137 | 0.0183 | 0.025
in isopropanol | 0.00185 | 0.0025 | 0.00334 | 0.00444 | 0.00605 | 0.0081 | 0.011 | 0.0152 | 0.0209
in methanol | 0.00461 | 0.0057 | 0.0071 | 0.00877 | 0.0112 | 0.0139 | 0.0173 | 0.0221 | 0.032
in methyl acetate | 0.0839 | 0.096 | 0.109 | 0.123 | 0.14 | 0.159 | 0.178 | 0.198 | 0.22
in n-butanol | 0.00257 | 0.00352 | 0.00459 | 0.00595 | 0.00794 | 0.0104 | 0.0139 | 0.0185 | 0.0253
in n-butyl acetate | 0.0497 | 0.0573 | 0.0665 | 0.077 | 0.0897 | 0.105 | 0.122 | 0.142 | 0.165
in n-pentanol | 0.00266 | 0.00374 | 0.00498 | 0.00667 | 0.0092 | 0.0122 | 0.0164 | 0.0219 | 0.0288
in n-pentyl acetate | 0.0429 | 0.0501 | 0.0592 | 0.0681 | 0.0791 | 0.093 | 0.108 | 0.128 | 0.15
in n-propanol | 0.00265 | 0.00345 | 0.00473 | 0.00629 | 0.00799 | 0.0106 | 0.014 | 0.0186 | 0.0252
in n-propyl acetate | 0.0592 | 0.0673 | 0.0771 | 0.0895 | 0.104 | 0.12 | 0.138 | 0.159 | 0.183
